“Also recorded” adds a separate entry of the source.
What was measured:
hyp-mice = experiment: In vivo daily ip injection of D6R in hyp mice (murine model of XLH); set-up: species or system mouse
Protocol: In vivo injection of D6R in normal and hyp mice: 3-week old normal and hyp mice were randomly separated into two groups for each strain. One group of mice received daily ip injection of saline. […] Blood samples were obtained every 3 days via retro-orbital bleedings. At the end of the in vivo injection period, the animals were euthanized with an overdose of sodium pentobarbital (65 mg/kg). The final blood sample was collected by cardiac puncture for large volume of serum preparation. Kidney and femoral bone samples were collected for total RNA and protein extractions.
(§1) Biochemistry measurements: Serum Pi levels were measured using Phosphorus Liqui-UV kit from Stanbio Laboratory (Boerne, Tex.). Serum Ca levels were measured using calcium Liquicolor kit from Stanbio following the manufacturer's protocols. Serum intact FGF-23 was measured employing a FGF-23 ELISA kit obtained from Kainos Laboratories, Japan. Serum C-terminal FGF-23 was measured using ELISA kit from Immunotopics, CA.
Real-time RT-PCR for mRNA expression: Total RNA was isolated from kidney samples and femurs. The femurs were trimmed of all fat, homogenized into fine powder in liquid nitrogen using porcelain motor and pestle. Total RNA was then extracted using TRIzol Reagent (Invitrogen, CA) following the manufacturer's protocol. Kidney samples were rinsed free of blood using ice-cold PBS buffer. Then the kidney was homogenized in TRIzol Reagent using mortor and pestle. Then, the renal total RNA was isolated following the manufacturer's protocol. RT reactions were performed using Bio-Rad iScript cDNA synthesis kit (Bio-Rad, CA) with poly-A primers. FGF-23 mRNA, as well as Npt2 mRNA and 25(OH)D3-1α-hydroxylase mRNA were quantitated by real-time PCR using gene specific primers.
Western blot for protein expression: Kidney proteins were isolated using sucrose buffer containing 20 mM HEPES, 1 mM EDTA, 255 mM sucrose, 0.4 mM phenylmethylsulfonyl fluoride, and 2 μg/ml leupeptin. The homogenate was centrifuged at 1,500 g for 15 min, and the pellet containing mitochondrial protein, including 25(OH)D-1α-hydroxylase, was re-suspended in the same buffer, aliquoted, and stored at −80° C. until use. The supernatant that contained the plasma membrane protein obtained after centrifugation was also collected for the measurement of Npt2 protein. Bone samples were homogenized into fine powder in liquid nitrogen. Protein contents were isolated using T-PER tissue protein extraction reagent with Halt protease inhibitor cocktail (Thermo Scientific, Rockford, Ill.).
A 20 μg aliquot of the respective protein extracts was electrophoresed in 10% SDS-PAGE gel and transferred onto a nitrocellulose membrane. The membrane was then washed and probed with specific antibodies and subsequently with specific secondary antibodies conjugated with HRP. To quantitate the immunoblotting signal, 6 ml of chemiluminescence detection solution (ECL plus, Amersham, UK) was added, and the signal was detected directly by the fluorescent scanner (Storm 860, Amersham, UK). Band density was analyzed using ImageQuant 5.2 software (Molecular Dynamics, Sunnyvale, Calif.). The antibody was then removed by incubating the membrane in reprobing solution (62.5 mM Tris-HCl, 2% SDS, and 100 mM 2-mercaptoethanol, pH 6.7) for 30 min, 50° C. The membrane was then blocked and probed with specific anti-β-actin antibody to verify the loading equivalence among samples.
High-resolution radiography (x-ray) for the femus: mouse femurs were extracted and incubated in lysis buffer (2×SSC, 0.2% SDS, 10 mM EDTA, 10 mg/ml proteinase K) for 2 days. After the surrounding muscles were digested, the femurs were washed in PBS buffer and X-rayed on a Faxitron model MX-20 Specimen Radiography System with a digital camera attached (Faxitron x-ray Corp., Buffalo Grove, Ill.). […]

normal mice = experiment: In vivo daily ip injection of D6R in normal mice; set-up: species or system mouse; details: D6R treated, daily ip for 5 weeks, saline 200 ± 15.5, p<0.001
Protocol: In vivo injection of D6R in normal and hyp mice: 3-week old normal and hyp mice were randomly separated into two groups for each strain. One group of mice received daily ip injection of saline. The other group of mice received daily ip injection of D6R 1.5 μg/kg/day for 5 weeks. Blood samples were obtained every 3 days via retro-orbital bleedings. At the end of the in vivo injection period, the animals were euthanized with an overdose of sodium pentobarbital (65 mg/kg). The final blood sample was collected by cardiac puncture for large volume of serum preparation. Kidney and femoral bone samples were collected for total RNA and protein extractions.
as §1

SPC2 [1] = experiment: SPC2 activity in hTert osteoblasts (MOB) in culture; type: cell-based; details: D6R 50 μM, p<0.01
Protocol: (§2) The dose-dependent effects of D6R (0-200 μM) on SPC2 activity in hTert osteoblasts (MOB) and MC3T3 osteoblasts in culture were also examined. […] Treatment of MC3T3 cells for a similar period likewise increased enzyme activity at 200 μM (124±14 vs 171±7 fluorescent units/min; p<0.05). Treatment of the MOB cell line with D6R, and the resulting increase in SPC2 enzyme activity decreased Fgf23 mRNA expression (1.0±0.7 vs 0.2±0.1 fold; p<0.001).

SPC2 [2] = experiment: SPC2 activity in MC3T3 osteoblasts in culture; type: cell-based; details: MC3T3 cells, D6R 200 μM, similar period (48 hours); control 124±14; p<0.05
Protocol: as §2

[3] = system: MOB cells (hTert osteoblasts); experiment: mRNA expression in MOB cell line treated with D6R; type: cell-based
Protocol: as §2

Question: How did the mineral apposition rate (hyp-mice; D6R treated hyp-mice, FIGS. 12-13) turn out when hexa-D-arginine [D6R] was run?
Answer: normalization; also recorded: restoration of normal bone mineral apposition rate

Question: What about the “serum FGF23 concentration” value (hyp-mice; Hyp-mice, D6R treated, daily ip for 5 weeks, saline 2126 ± 281, p<0.001) of the same substance?
Answer: 1682 ± 191

Question: And the “bone modeling (long bone circumference)” value (hyp-mice; hyp mouse)?
Answer: decreased to normal

Question: What about the “length of the long bones in the extremities” value (hyp-mice; hyp mouse) of the same substance?
Answer: increased

Question: And the “renal 25(OH)D3-1α-hydroxylase activity (translational abnormality)” value (hyp-mice; hyp mouse)?
Answer: normalized

Question: And the “degradation of serum FGF23” value (hyp-mice; hyp mouse, D6R treatment, FIG. 3B)?
Answer: increased

Question: And the “degradation of intact FGF23 in hyp-mouse bone” value (hyp-mice; hyp mouse, ip x 5 weeks)?
Answer: enhanced

Question: What about the “Fgf23 mRNA expression” value (hyp-mice; hyp mouse, ip x 5 weeks, FIG. 3A) of the same substance?
Answer: decreased

Question: What about the “Npt2a mRNA” value (hyp-mice; hyp mouse, kidney, FIGS. 2A-B) of the same substance?
Answer: normalization

Question: What about the “renal phosphate wasting and serum phosphorus levels” value (hyp-mice; hyp mouse, FIG. 1) of the same substance?
Answer: normalization

Question: What about the “Sost mRNA and the coded protein Sclerostin” value (hyp-mice; hyp mouse, FIG. 4) of the same substance?
Answer: suppression

Question: What about the “bone 7B2 mRNA expression” value (hyp-mice; hyp mouse, FIG. 5) of the same substance?
Answer: stimulation

Question: And the bone density normalization (hyp-mice; hyp mouse, FIG. 9)?
Answer: increasing

Question: What about the “Osteoid surface/Bone surface (OS/BS)” value (hyp-mice; hyp mouse, FIG. 11A) of the same substance?
Answer: decreasing

Question: What about the “Mineralized area/Total Area (MA/TA ratios)” value (hyp-mice; hyp mouse, FIG. 11B) of the same substance?
Answer: enhancing

Question: What about the rickets and osteomalacia (hyp-mice; hyp mouse, FIGS. 6-13) of the same substance?
Answer: cured

Question: And the “serum FGF23 concentration” value (normal mice)?
Answer: 120 ± 12.5

Question: What about the “SPC2 activity, h-Tert osteoblasts” value (SPC2 [1]; control 121 ± 18) of the same substance?
Answer: 329 ± 17 fluorescent units

Question: And the SPC2 activity (SPC2 [1]; hTert osteoblasts, 48 hours, control 121±18)?
Answer: 329±17 fluorescent units/min

Question: What about the SPC2 enzyme activity (SPC2 [2]) of the same substance?
Answer: 171±7 fluorescent units/min

Question: And the “Fgf23 mRNA expression” value ([3]; MOB cell line treated with D6R, control 1.0±0.7, p<0.001)?
Answer: 0.2±0.1 fold

Question: What about the “SPC2 mRNA expression” value ([3]; MOB cells treated with D6R) of the same substance?
Answer: without alteration

Question: What about the “7B2 mRNA expression” value ([3]; MOB cells treated with D6R, control 1.0±0.2, p<0.001) of the same substance?
Answer: 3.6±0.4 fold

Source: patent publication US9511111B2, “Methods for the treatment of X-linked hypophosphatemia and related disorders” (WISCONSIN ALUMNI RESEARCH FOUNDATION, priority 2010, dated 2016)
